Two molecules from patent publication US9581587B2, “Sperm staining and sorting methods” (INGURAN, LLC, priority 2011, dated 2017) can be followed below.

Assay [1] deals with membrane compromised sperm. Description: Dead gate intensity, yellow 5 and phenol red at higher concentrations (Example 6). The assay is classed as cell-based, Jersey bull. The conditions noted are these: Hoechst 12 μL/2 mL.
Assay [2] concerns sperm. Description: Split quality, split enhancing dyes at various concentrations and incubation times (Example 10). The format is cell-based, bulls. To be noted: 15, 45, 125 μM; 30-75 minutes; averaged over 8 bulls. On the procedure:
Eight bulls were collected, including 4 Jersey bulls, 3 Holstein bulls and one mixed dairy-breed. The ejaculates were collected at concentrations ranging from 1700×10^6 sperm/ml to 1100×10^6 sperm/ml and all had progressive motility of a least 60%.
Sperm from each bull was extended to 160 million per ml with a first buffer, (TALP described in table 1 at a pH 7.4) and stained with 64 μM (164/2 mL) Hoechst 33342 at 34° C. Additionally, Phenol Red, Red Food Dye No. 2, Red Food Dye No. 3, and Red Food Dye No. 4, were each tested as split enhancing dyes in the first buffer at concentrations of 15 μM, 45 μM and 125 μM. For each bull, each concentration of each dye was incubated for periods of 30 minutes, 45 minutes, 60 minutes, and 75 minutes were utilized before a second buffer with an additional dye was applied.
Each sample was then extended in an equal volume of a second buffer which comprised a 5.5 pH modified TALP having 25 μM yellow food dye No. 6 (acting as a dead quenching dye) in addition to the split enhancing dye provided in the first buffer. The second buffer was applied to every sample at 30 minutes, 45 minutes, 60 minutes, and 75 minutes. A control was additionally taken without any split enhancing dye for every bull at every time interval.
Sorting was performed on a MoFlo SX (Beckman Coulter, USA) in substantially the same manner described in Example 5. After calibration, screen shots of sorting histograms were taken and split quality was measured by peak to valley ratios in the same way described in Example 5 with reference to FIG. 4 and the resulting data, averaged over all 8 bulls, is found in Tables 18-21. Additionally, screen shots of bivariate plots were taken to measure the added dead quenching capacity of the mixed dead quenching and split enhancing dyes.

The test system of assay [3] is membrane compromised sperm. In words: Bivariate plots comparing dead quenching dyes (FIG. 3). The format is cell-based. The conditions noted are these: three bulls, equal amounts of Hoechst 33342 and of dye. The source says: FIG. 3 illustrates comparisons of bivariate plots generated in sex sorting sperm which reflect the intensity of the excited DNA selective fluorescent dye during sorting. Three bulls were stained with equal amounts of Hoechst 33342 and with an equal amount of yellow food dye No. 6 and red food dye No. 40. The region labeled as R4 surrounds what is considered the “dead” sperm population, while the region R1 is centered on viable, oriented sperm. It can be seen that for each bull yellow food dye no.

In the case of `O=S1(=O)OC(c2ccc(O)cc2)(c2ccc(O)cc2)c2ccccc21` [Phenol Red, phenolsulfonphthalein], the Intensity came to 85% in assay [1] (dye 125 μM, pH 7.40); 76% in assay [1] (dye 250 μM, pH 7.40); 66% in assay [1] (dye 500 μM, pH 7.40); 56% in assay [1] (dye 750 μM, pH 7.40); 47% in assay [1] (dye 875 μM, pH 7.40); 43% in assay [1] (dye 1250 μM, second buffer pH 7.40). For the same molecule, in assay [2], the “split enhancing effect compared to control” value is “provided consistent split improvements at all concentrations after 30 minutes”.
In the case of `O=S(=O)([O-])c1ccc(N=Nc2c(O)ccc3cc(S(=O)(=O)[O-])ccc23)cc1.[Na+].[Na+]` [Yellow 6, Disodium 6-hydroxy-5[(4-sulfophenyl)azo]-2-naphthalenesulfononate], in assay [3], the “quenching of the dead population compared to red food dye No. 40” value is “superior quenching”.
